The subject of one series is HeLa cells. Description: In vivo cervical cancer mouse model. Details: species or system mice. The method, then: To investigate the effects of an example compound on a cervical cancer mouse model, HeLa cells were introduced to the back of mice (five groups, 5-6 mice in each group). After the tumor volume reached about 200 mm^3, compound HG1a-1 solution (5, 20, 50 mg/kg) was dosed by intraperitoneal (IP) injection, every second day for ten days. Control mice were dosed with Saline and Taxol solution (PTX, 20 mg/kg). Tumor weight and volume were measured.

A further series has as its system visceral fat adipocytes. Description: Histological analysis of white adipocyte size in visceral fat (toluidine blue O). The class given is in vivo, mouse. The method, then: Fluorescent microscopy. Adipose tissue was harvested and fixed in 4% paraformaldehyde (SigmaP6148). Adipocyte size was measured by staining for toluidine blue O in 5-20 μm-thick sections, paraffin embedded (Cell Signalling Technology, Tissue-Tek O.C.T.). adipocyte differentiations assessed by Oil Red 0 staining.

Series [1] has as its system reactive oxygen species (ROS). Nature of the series: Serum ROS generation evaluation. Type of series: in vivo, mouse. The following applies: blood plasma, after 14 months of treatment.
Series [2] has as its target T1, cytochrome c oxidase (CcO) (Mus musculus, UniProt P00397).
T1 construct: Mouse livers were extracted, and liver mitochondria were obtained using a mitochondria isolation kit; from tissue; host or cells: liver mitochondria of treated and control C57BL/6 mice, isolated with a Sigma-Aldrich mitochondria isolation kit; activity kit Sigma-Aldrich CYTOCOX1
Description: CcO activity in liver mitochondria of treated mice. Type of series: in vivo. As for the experimental part: Measurement of CcO activity in liver mitochondria. Mouse livers were extracted, and liver mitochondria were obtained using a mitochondria isolation kit (Sigma-Aldrich). CcO activity in liver mitochondria was measured using a cytochrome c oxidase assay kit (Sigma-Aldrich, CYTOCOX1, USA.

Series [3] concerns ASC1, Wdnm1-like, FGF-21, PGC-1α transcripts. Description: qPCR of adipogenesis regulators and white fat inducing transcripts in visceral fat. Type of series: in vivo, mouse. The method, then: Gene expression & RT qPCR Analyses. Total RNA was isolated using a commercially available kit (OMEGA bio-tek, R6812-02) according to the manufacturer's instructions. cDNA was generated using the PrimeScript RT reagent kit (TAKARA, RR047A). Gene expression were determined by qPCR as described in the product manual. The analysis was evaluated by Bio-Rad Real-Time System (CFX Connect™).
RNAs from 10 mice (5 treated and 5 Ctrl.) VF fat or livers were isolated by using omega Bio-Tek reagents, and cDNA was transcribed by (TAKARA). qPCR was then performed by using iQ SYBR Green mastermix bioscience on a CFX96 Real-Time System/C1000 Thermal Cycler (Bio-Rad).
On the technique in general: In qPCR the cycle at which signal appears reflects the starting amount.

A short description of series [4]: Stability of compound in drinking water. Type of series: physicochemical. The following applies: drinking water pH=7-7.4, room temperature, 20-30 days. An excerpt:
Previously, the inventors developed series of derivatives of the tetrazole, thiazole, and 1,2,3-triazole families that were thought to be reversible inhibitors of the cytochrome c oxidase (CcO) model and characterized as possible moderate inhibitors of mitochondrial respiration (Barile et al. (2012), Proceedings of the National Academy of Sciences of the United States of America, 109:7, pp. 2539-2543). In this research, a triphenyl phosphonium thiazole derivative (referred to herein as HG1a-1) was randomly selected. Overall, no mice died due to oral administration of compound during 18-20 months. […]
The C57BL/6 mice were maintained on a standard purified mouse diet (PicoLab 5053 Rodent Diet 20; Lab Diets) until they reached 2 months of age when the treatments started. […] Body weights were measured weekly at the same time each week. Food and water intake were measured once every month for 3-6 consecutive days at the same time each month. Water consumption was measured for 2 weeks prior to the start of administration. Compound was generated and modified for better permeability in to mitochondria, evaluated by HPLC, was 96%-97%. […] Aliquots were collected from each batch and measured by HPLC to confirm stability of the compound. […] Rectal body temperature was measured monthly, as described previously. Whole blood samples, and histopathology were analyzed after 14 months of treatment. […]

Series [5] in a line: Chronic 10-week treatment of T2DM mice. The class given is in vivo. The method, then: Next, in a biased investigation on impact of partial inhibition as a potential anti-diabetic treatment, two groups of type 2 diabetes mellitus (T2DM) and healthy control mice were prepared. Four weeks after the verification of T2DM, diabetic mice began to receive the exemplary subject compound. The chronic treatment phase lasted for 10 weeks.

A further series relates to ATP production. Description: ATP level in liver of treated mice. The class given is in vivo, mouse. An excerpt: Measurement of ATP level in liver. For measuring ATP, cellular ATP in livers was extracted using an ATP extraction kit of an ATP assay kit (Sigma-Aldrich, MAKI 90). The ATP level was quantitatively measured by the absorbance at 570 nm (A570).
Setting [6] is: 5, 20 and 50 mg/kg IP, after 10 days.

Bounds are passed on as bounds.

With `Cc1ncsc1CCOC(=O)C[P+](c1ccccc1)(c1ccccc1)c1ccccc1.[Br-]` [HG1a-1, (2-(2-(4-Methylthiazol-5-yl)Ethoxy)-2-Oxoethyl) Triphenylphosphonium Bromide], in the series on HeLa cells (5, 20, 50 mg/kg IP every second day for ten days, with increasing dose), the tumor size result is on record as “decreased”. For the same molecule, in the series on HeLa cells (setting [6]), the “tumor volume relative to saline control” value is given as “decreased” and the “tumor weight relative to saline control” value is recorded as “decreased”. Besides, the “visceral fat adipocyte size and cell perimeter” value in the series on visceral fat adipocytes (5 month old treated mice) is “minor changes”. The “adipocyte shrinkage in size and perimeter compared to control” value in the series on visceral fat adipocytes (12 month old treated mice) stood at 3 fold. Further, in series [1], the “drop of ROS production” value was about 4 fold. This molecule displayed a CcO inhibition activity in series [2] (2 month old mice) of 67%. For the same molecule, in series [2] (12-month-long treated mice), the “CcO function higher than controls of the same model” value is given as “about 20%” and the “CcO function vs same age subjects receiving a single dose” value is given as “one-fold greater”. For the same molecule, the CcO inhibition activity in series [2] (14 month old mice) is 65%. In addition, in series [3] (14 months of treatment), the “ASC1 transcript decrease vs control” value is over 9 fold, the FGF-21 transcript result is given as “remained unchanged” and the “Wdnm1-like transcript decrease vs control” value is 30 fold. Besides, the PGC-1α transcript entry in series [3] (aged mice) is given as “increased”. For the same molecule, in series [4], the “compound maintained intact in drinking water” value is given as 95%-99. Besides, in series [5] (after one week (23 mM at time 0)), the “drop of blood glucose level” value stood at 20%. The “drop of blood glucose level” value in series [5] (by week 3, reached healthy controls) is listed as 39%. The insulin elevations result in series [5] (week 3) was “negligible”. In the series on ATP production (6 months), the “decrease of ATP level in liver compared to controls” value stood at 50%. For the same molecule, the “decrease of ATP level in liver compared to controls” value in the series on ATP production (long term treated mice) is listed as 25%.

The record behind these values is US20220281902A1, “MIT[…] IMPROVE METABOLIC SYNDROME DURING AGING” (The Board of Trustees of the Leland Stanford Junior …, priority 2019, published 2022).
